The conditions of data set [1]: mouse, in vivo; for form of radioactivity in tumors: iv. The method, then: Metabolite analysis of tissues including liver, kidney and tumor by HPLC was also accomplished. […] Choline and its metabolites lack any UV chromophore to permit presentation of chromatograms of the cold unlabelled compound simultaneously with the radioactivity chromatograms.
Liver, kidney, and tumor samples were obtained at 30 min. All samples were snap-frozen in liquid nitrogen. […] To ˜0.2 mL plasma was added ice-cold methanol (1.5 mL). The mixture was then centrifuged (3 min, 15,493×g, 4jC). […] Liver, kidney, and tumor samples were homogenized in ice-cold methanol (1.5 mL) using an IKA Ultra-Turrax T-25 homogenizer and subsequently treated as per plasma samples (above). All samples were analyzed by radio-HPLC on an Agilent 1100 series HPLC system (Agilent Technologies) equipped with a γ-RAM Model 3 γ-detector (IN/US Systems) and Laura 3 software (Lablogic). The stationary phase comprised a Waters μBondapak C18 reverse-phase column (300×7.8 mm) (Waters, Milford, Mass., USA). Samples were analyzed using a mobile phase comprising solvent A (acetonitrile/water/ethanol/acetic acid/1.0 mol/L ammonium acetate/0.1 mol/L sodium phosphate; 800/127/68/2/3/10) and solvent B (acetonitrile/water/ethanol/acetic acid/1.0 mol/L ammonium acetate/0.1 mol/L sodiumphosphate; 400/400/68/44/88/10) with a gradient of 0% B for 6 min, then 0>100% B in 10 min, 100% B for 0.5 min, 100>0% B in 1.5 min then 0% B for 2 min, delivered at a flow rate of 3 mL/min

For data set [2], the system named is choline oxidase. Briefly: Enzymatic oxidation study using choline oxidase. As to conditions: 60 minute time point, room temperature, pH 7.
Data set [3] concerns HCT116 human colon xenografts. As to conditions: mouse, in vivo. The method, then: Time course biodistribution was carried out for [^18F]fluoromethylcholine, [^18F]fluoromethyl-[1-^2H2]choline and [^18F]fluoromethyl-[1,2-^2H4]choline in nude mice bearing HCT116 human colon xenografts.
Human colon (HCT116) tumors were grown in […] (Harlan, Bicester, United Kingdom) as previously reported (Leyton, J., et al., Cancer Research 2005; 65(10):4202-10). Tumor dimensions were measured continuously using a caliper and tumor volumes were calculated by the equation: volume=(π/6)×a×b×c, where a, b, and c represent three orthogonal axes of the tumor. Mice were used when their tumors reached approximately 100 mm^3. [^18F]Fluoromethylcholine, [^18F]fluoromethyl-[1-^2H2]choline and [^18F]fluoromethyl-[1,2-^2H4]choline (˜3.7 MBq) were each injected via the tail vein into awake untreated tumor bearing mice. The mice were sacrificed at pre-determined time points (2, 30 and 60 min) after radiotracer injection under terminal anesthesia to obtain blood, plasma, tumor, heart, lung, liver, kidney and muscle. Tissue radioactivity was determined on a gamma counter (Cobra II Auto-Gamma counter, Packard Biosciences Co, Pangbourne, UK) and decay corrected. Data were expressed as percent injected dose per gram of tissue.

The conditions of data set [4]: mouse, in vivo.
The test system of data set [5] is human melanoma SKMEL-28 xenografts. Particulars: mouse, in vivo. The method, then: (§1) Dynamic [^18F]FCH and [^18F]D4-FCH imaging scans were carried out on a dedicated small animal PET scanner, quad-HIDAC (Oxford Positron Systems). The features of this instrument have been described previously (Barthel, H., et al., Cancer Res 2003; 63(13):3791-8). For scanning the tail veins, vehicle- or drug-treated mice were cannulated after induction of anesthesia (isofluorane/O2/N2O). The animals were placed within a thermostatically controlled jig (calibrated to provide a rectal temperature of ˜37° C.) and positioned prone in the scanner. [^18F]FCH or [^18F]D4-FCH (2.96-3.7 MBq) was injected via the tail vein cannula and scanning commenced. Dynamic scans were acquired in list mode format over a 60 min period as reported previously (Leyton, J., et al., Cancer Research 2006; 66(15):7621-9). The acquired data were sorted into 0.5 mm sinogram bins and 19 time frames (0.5×0.5×0.5 mm voxels; 4×15, 4×60, and 11×300 s) for image reconstruction, which was done by filtered back-projection using a two-dimensional Hamming filter (cutoff 0.6). The image data sets were visualized using the Analyze software (version 6.0; Biomedical Imaging Resource, Mayo Clinic). Cumulative images of 30 to 60 min dynamic data were used for visualization of radiotracer uptake and to draw regions of interest. Regions of interest were defined manually on five adjacent tumor regions (each 0.5 mm thickness). Dynamic data from these slices were averaged for each tissue (liver, kidney, muscle, urine, and tumor) and at each of the 19 time points to obtain time versus radioactivity curves. Corresponding whole body time versus radioactivity curves representing injected radioactivity were obtained by adding together radioactivity in all 200×160×160 reconstructed voxels. Tumor radioactivity was normalized to whole-body radioactivity and expressed as percent injected dose per voxel (% ID/vox). The normalized uptake of radiotracer at 60 min (% ID/vox60) was used for subsequent comparisons. The average of the normalized maximum voxel intensity across five slices of tumor % IDvox60max was also use for comparison to account for tumor heterogeneity and existence of necrotic regions in tumor. The area under the curve was calculated as the integral of % ID/vox from 0 to 60 min

The conditions of data set [6]: for parent compound still present after potassium permanganate treatment: 1 hour post-treatment, KMnO4, Na2CO3, H2O, rt, radio-HPLC.
The next data set has as its system choline kinase A (CHKA). Briefly: Choline kinase A expression in HCT116 tumors by western blotting. Particulars: day 10, 25 mg/kg daily orally. The class given is in vivo, mice. How it is done: HCT116 tumors from mice that were injected with PD0325901 (25 mg/kg daily for 10 days, orally) or vehicle were analyzed for CHKA expression by western blotting. β-actin was used as the loading control. (b) Summary densitometer measurements for CHKA expression expressed as a ratio to β-actin. The results are the mean ratios±SE; n=3, * P=0.05.
Size-matched HCT116 tumor bearing mice were randomized to receive daily treatment by oral gavage of vehicle (0.5% hydroxypropyl methylcellulose+0.2% Tween 80) or 25 mg/kg (0.005 mL/g mouse) of the mitogenic extracellular kinase inhibitor, PD0325901, prepared in vehicle. [^18F]D4-FCH-PET scanning was done after 10 daily treatments with the last dose administered 1 h before scanning. […] The results are illustrated in FIGS. 18 and 19.
To understand further the mechanisms regulating [^18F]D4-FCH uptake with drug treatment, changes in CHKA expression in PD0325901 and vehicle-treated tumors excised after PET scanning were assessed.

The test system of a further data set is HCT116 tumors. Nature of the data set: Effect of PD0325901 treatment in HCT116 tumor bearing mice ([^18F]D4-FCH-PET, tumor size). The class given is in vivo. How it is done:
as §1, with “The average of the normalized maximum voxel intensity across five slices of tumor % IDvox60max was also use for comparison to account for tumor heterogeneity and existence of necrotic regions in tumor.” left out

The next data set relates to HCT116 cells. Briefly: Effect of PD0325901 on [^18F]D4-FCH metabolism and CHKA expression in HCT116 cells in culture. The format is cell-based, human. How it is done: HCT116 cells were grown in T150 flasks in triplicate until they were 70% confluent and then treated with vehicle (1% DMSO in growth medium) or 1 μmol/L PD0325901 in vehicle for 24 h. Cells were pulsed for 1 h with 1.1 MBq of either [^18F]D4-FCH or [^18F]FCH. The cells were washed three times in ice-cold phosphate buffered saline (PBS), scraped into 5 mL PBS, and centrifuged at 500×g for 3 min and then resuspended in 2 mL ice-cold methanol for HPLC analysis as described above for tissue samples. […] Briefly, HCT116 cells were grown in 100 mm dishes in triplicate and incubated with 5.0 MBq [^18F]FCH for 60 min at 37° C. to form the putative [^18F]FCH-phosphate. The cells were washed with 5 mL ice-cold PBS twice and then scraped and centrifuged at 750×g (4° C., 3 min) in 5 mL PBS. Cells were homogenized in 1 mL of 5 mmol/L Tris-HCl (pH 7.4) containing 50% (v/v) glycerol, 0.5 mmol/L MgCl2, and 0.5 mmol/L ZnCl2 and incubated with 10 units bacterial (type III) alkaline phosphatase (Sigma) at 37° C. in a shaking water bath for 30 min to dephosphorylate the [^18F]FCH-phosphate. The reaction was terminated by adding ice-cold methanol. Samples were processed as per plasma above and analyzed by radio-HPLC. Control experiments were done without alkaline phosphatase. […]

Data set [7] in a line: Oxidation potential in vivo (radio-HPLC of mouse plasma after i.v. injection). Particulars: 15 min after i.v. injection into mice.
The conditions of data set [8]: mouse, in vivo, 60 min. How it is done:
as §1

For data set [9], the system named is choline oxidase. As to conditions: 60 min, 1.76 MBq/mL, pH 7.

Molecules are shown by their SMILES. Where two headings read alike, the source gives them in different places.

With `[2H]C([2H])(O)C([2H])([2H])[N+](C)(C)C[18F]` [[^18F]D4-FCH, [^18F]fluoromethyl-[1,2-^2H4]choline], in [1], the “kidney radioactivity in the form of betaine” value amounted to 20.6±6.2%, the “kidney radioactivity present as phosphocholine” value amounted to 60.6±3.7%, the “liver radioactivity present as phosphocholine” value is “high proportion” and the “unknown metabolite (possibly the aldehyde intermediate) in liver” value stood at 7.4±2.3%. In data set [1], the “unknown metabolite in kidney” value is on record as 8.8±0.2% and the “form of radioactivity in tumors” value was “mainly in the form of phosphocholine”. For the same compound, the “parent radiotracer present (radio-HPLC distribution of choline species)” value in the data set with choline oxidase [2] was found to be 29±4%. In [3], the “tumor uptake at the later time points” value is listed as “pronounced increase”. In addition, the “percentage of parent compound in plasma compared to [^18F]FCH” value in data set [4] is listed as “consistently higher”. In [4] (iv), the “conversion of parent tracer to betaine metabolite in plasma” value was 40%. Besides, in data set [5], the “%IDvox60max (average of maximum pixel % ID/vox60 across 5 slices) compared to [^18F]FCH” value is recorded as “significantly higher” and the “tumor area under the time versus radioactivity curve (AUC) compared to FCH” value is on record as “higher”. In addition, in data set [6] (20 min), the “proportion of parent compound remaining (radio-HPLC), relative to [^18F]fluoromethylcholine” value is recorded as “greater proportion of the parent compound remaining”. In addition, the “parent compound still present after potassium permanganate treatment” value in data set [6] is ~80%.

`O=C(NOC[C@H](O)CO)c1ccc(F)c(F)c1Nc1ccc(I)cc1F` [PD0325901]: the “CHKA protein expression in tumors” value in the data set with choline kinase A (CHKA) was “significant reduction”. Moreover, in the data set on HCT116 tumors (10 daily treatments 25 mg/kg, HCT116 tumors, PET), the “[^18F]D4-FCH radiotracer retention in treated tumors” value was “marked reduction in radiotracer retention”. In addition, in the data set with HCT116 tumors (after 10 days of drug treatment, HCT116 tumors), the “imaging variables (% ID/vox60, % ID/vox60max, AUC) of [^18F]D4-FCH” value is recorded as “decreased”. Also, the “reduction in tumor size compared to the pretreatment group” value in the data set with HCT116 tumors (day 10, 25 mg/kg daily oral, HCT116 xenograft) was found to be 12.2%. In addition, the “[^18F]D4-FCH-phosphocholine formation” value in the data set on HCT116 cells (1 μmol/L for 24 h, 60-min uptake of [^18F]D4-FCH) is “significantly inhibited”. In the data set on HCT116 cells (exponentially growing cells), the “CHKA expression in vitro” value was “reduction of CHKA expression”.

For the compound `C[N+](C)(C[18F])CCO` [[^18F]FCH, [^18F]Fluoromethylcholine], in data set [1], the “liver radioactivity present as phosphocholine” value was “high proportion” and the “unknown metabolite (possibly the aldehyde intermediate) in liver” value was “not found”. In [1] (30 min), the “kidney radioactivity in the form of betaine” value was found to be 53.5±5.3%, the “kidney radioactivity present as phosphocholine” value amounted to 31.8±9.8%, the “unknown metabolite in kidney” value worked out at 3.3±0.6% and the “form of radioactivity in tumors” value is “significant levels of [^18F]FCH-betaine”. In addition, in data set [7], the “conversion of parent tracer to betaine metabolite in plasma” value came out at 80%. In addition, in data set [5] (60 min), the “tumor radiotracer uptake, % ID/vox60” value stood at 5.50±0.49 % ID/vox. For the same compound, in [8], the “bladder (urine) radioactivity, % ID/vox60” value amounted to 6.70±0.71 % ID/vox; the “kidney radioactivity, % ID/vox60” value is 15.97±4.65 % ID/vox; the “liver radioactivity, % ID/vox60” value is on record as 18.75±4.28 % ID/vox. The “parent compound still present after potassium permanganate treatment” value in [6] is on record as “less than 40%”. Besides, the “parent radiotracer present (radio-HPLC distribution of choline species)” value with choline oxidase [9] came out at 11±8%.

For the origin of these results see patent US20130178653A1, “NOVEL PRECURSOR OF RADIOLABELLED CHOLINE ANALOG COMPOUNDS” (IMPERIAL COLLEGE, priority 2010, published 2013).
